Data: PubChem BioAssay AID1963434 (Molecular Pharmacology Branch, DTP, NCI, 2024)

Test system: 755483-174-R-J1-PDC complex spheroid growth, percent test/control
Assay: Anticancer human tumor 755483-174-R-J1-PDC patient-derived rhabdomyosarcoma cell line growth inhibition [Asc]
Conditions: for IC50: curve of first compound; for viability, T/C: stronger effect = lower value
In short: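 Complex spheroids combining tumor cells with HUVEC endothelial cells and human MSCs, at 37 degrees C, 5% CO2; agents tested alone or combined, half-log dilutions from at or near clinical Cmax, or 10 microM if Cmax unknown.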

[1] = second compound 0.1 µM, first compound 0.00316 µM
[2] = second compound 0.1 µM, first compound 0.01 µM
[3] = second compound 0.1 µM, first compound 0.0316 µM
[4] = second compound 0.1 µM, first compound 0.1 µM
[5] = second compound 0.1 µM, first compound 0.316 µM
[6] = second compound 0.1 µM, first compound 1 µM
[7] = second compound 0.316 µM, first compound 0.00316 µM
[8] = second compound 0.316 µM, first compound 0.01 µM
[9] = second compound 0.316 µM, first compound 0.0316 µM
[10] = second compound 0.316 µM, first compound 0.1 µM
[11] = second compound 0.316 µM, first compound 0.316 µM
[12] = second compound 0.316 µM, first compound 1 µM
[13] = second compound 1 µM, first compound 0.00316 µM
[14] = second compound 1 µM, first compound 0.01 µM
[15] = second compound 1 µM, first compound 0.0316 µM
[16] = second compound 1 µM, first compound 0.1 µM
[17] = second compound 1 µM, first compound 0.316 µM
[18] = second compound 1 µM, first compound 1 µM
[19] = second compound 3.16 µM, first compound 0.00316 µM
[20] = second compound 3.16 µM, first compound 0.01 µM
[21] = second compound 3.16 µM, first compound 0.0316 µM
[22] = second compound 3.16 µM, first compound 0.1 µM
[23] = second compound 3.16 µM, first compound 0.316 µM
[24] = second compound 3.16 µM, first compound 1 µM
[25] = second compound 10 µM, first compound 0.00316 µM
[26] = second compound 10 µM, first compound 0.01 µM
[27] = second compound 10 µM, first compound 0.0316 µM
[28] = second compound 10 µM, first compound 0.1 µM
[29] = second compound 10 µM, first compound 0.316 µM
[30] = second compound 10 µM, first compound 1 µM
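Also: spheroids exposed to compounds for seven days before readout.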

CCN1CCN(Cc2ccc(Nc3ncc(F)c(-c4cc(F)c5nc(C)n(C(C)C)c5c4)n3)nc2)CC1 + Cc1c(S(C)(=O)=O)c(-c2cc(F)cc(N3CCN(c4ccc(NS(=O)(=O)c5ccc(NC(CCN6CCC(C(=O)OCCCP(=O)(O)O)CC6)CSc6ccccc6)c(S(=O)(=O)C(F)(F)F)c5)cc4)CC3)c2)c(-c2ccc(Cl)cc2)n1C(C)C
IC50 (second compound 0.1 µM): > 1000 nM
IC50 (second compound 0.316 µM): < 3.16 nM
IC50 (second compound 1 µM): < 3.16 nM
IC50 (second compound 3.16 µM): < 3.16 nM
IC50 (second compound 10 µM): < 3.16 nM
viability, T/C [1]: 43%
viability, T/C [2]: 62.1%
viability, T/C [3]: 59.5%
viability, T/C [4]: 68.5%
viability, T/C [5]: 103%
viability, T/C [6]: 104%
viability, T/C [7]: 41%
viability, T/C [8]: 48%
viability, T/C [9]: 57.9%
viability, T/C [10]: 59.3%
viability, T/C [11]: 69%
viability, T/C [12]: 81.7%
viability, T/C [13]: 33.3%
viability, T/C [14]: 45.3%
viability, T/C [15]: 37.3%
viability, T/C [16]: 50.2%
viability, T/C [17]: 49.5%
viability, T/C [18]: 49.7%
viability, T/C [19]: 31.3%
viability, T/C [20]: 66%
viability, T/C [21]: 36.6%
viability, T/C [22]: 45.4%
viability, T/C [23]: 40.9%
viability, T/C [24]: 58.5%
viability, T/C [25]: 52.8%
viability, T/C [26]: 41.9%
viability, T/C [27]: 55%
viability, T/C [28]: 54.4%
viability, T/C [29]: 66.9%
viability, T/C [30]: 70.9%

Cn1ncnc1[C@H]1c2n[nH]c(=O)c3cc(F)cc(c23)N[C@@H]1c1ccc(F)cc1 + Cc1c(S(C)(=O)=O)c(-c2cc(F)cc(N3CCN(c4ccc(NS(=O)(=O)c5ccc(NC(CCN6CCC(C(=O)OCCCP(=O)(O)O)CC6)CSc6ccccc6)c(S(=O)(=O)C(F)(F)F)c5)cc4)CC3)c2)c(-c2ccc(Cl)cc2)n1C(C)C
IC50 (second compound 0.1 µM): 1.85 nM
IC50 (second compound 0.316 µM): < 0.316 nM
IC50 (second compound 1 µM): < 0.316 nM
IC50 (second compound 3.16 µM): < 0.316 nM
IC50 (second compound 10 µM): < 0.316 nM
viability, T/C (second compound 0.1 µM, first compound 0.000316 µM): 50.8%
viability, T/C (second compound 0.1 µM, first compound 0.001 µM): 50.7%
viability, T/C [1]: 49.3%
viability, T/C [2]: 30.7%
viability, T/C [3]: 28.1%
viability, T/C [4]: 35%
viability, T/C (second compound 0.316 µM, first compound 0.000316 µM): 46.2%
viability, T/C (second compound 0.316 µM, first compound 0.001 µM): 41%
viability, T/C [7]: 34.7%
viability, T/C [8]: 38.1%
viability, T/C [9]: 25%
viability, T/C [10]: 30.3%
viability, T/C (second compound 1 µM, first compound 0.000316 µM): 38.2%
viability, T/C (second compound 1 µM, first compound 0.001 µM): 32.1%
viability, T/C [13]: 35%
viability, T/C [14]: 34%
viability, T/C [15]: 23.7%
viability, T/C [16]: 21.6%
viability, T/C (second compound 3.16 µM, first compound 0.000316 µM): 38%
viability, T/C (second compound 3.16 µM, first compound 0.001 µM): 39.3%
viability, T/C [19]: 24.7%
viability, T/C [20]: 18.6%
viability, T/C [21]: 19.2%
viability, T/C [22]: 18.8%
viability, T/C (second compound 10 µM, first compound 0.000316 µM): 32.6%
viability, T/C (second compound 10 µM, first compound 0.001 µM): 39.4%
viability, T/C [25]: 32.9%
viability, T/C [26]: 29.5%
viability, T/C [27]: 16.7%
viability, T/C [28]: 15.7%

O=C(c1cc(Cc2n[nH]c(=O)c3ccccc23)ccc1F)N1CCN(C(=O)C2CC2)CC1 + Cc1c(S(C)(=O)=O)c(-c2cc(F)cc(N3CCN(c4ccc(NS(=O)(=O)c5ccc(NC(CCN6CCC(C(=O)OCCCP(=O)(O)O)CC6)CSc6ccccc6)c(S(=O)(=O)C(F)(F)F)c5)cc4)CC3)c2)c(-c2ccc(Cl)cc2)n1C(C)C
IC50 (second compound 0.1 µM): < 31.6 nM
IC50 (second compound 0.316 µM): < 31.6 nM
IC50 (second compound 1 µM): < 31.6 nM
IC50 (second compound 3.16 µM): < 31.6 nM
IC50 (second compound 10 µM): < 31.6 nM
viability, T/C [3]: 40.4%
viability, T/C [4]: 35.8%
viability, T/C [5]: 53%
viability, T/C [6]: 47.3%
viability, T/C (second compound 0.1 µM, first compound 3.16 µM): 25.8%
viability, T/C (second compound 0.1 µM, first compound 10 µM): 14.7%
viability, T/C [9]: 39.7%
viability, T/C [10]: 32.4%
viability, T/C [11]: 28.6%
viability, T/C [12]: 25.4%
viability, T/C (second compound 0.316 µM, first compound 3.16 µM): 23.5%
viability, T/C (second compound 0.316 µM, first compound 10 µM): 12.2%
viability, T/C [15]: 32.6%
viability, T/C [16]: 38.9%
viability, T/C [17]: 24.2%
viability, T/C [18]: 31.6%
viability, T/C (second compound 1 µM, first compound 3.16 µM): 20.4%
viability, T/C (second compound 1 µM, first compound 10 µM): 12.7%
viability, T/C [21]: 31%
viability, T/C [22]: 32.7%
viability, T/C [23]: 22.9%
viability, T/C [24]: 17.6%
viability, T/C (second compound 3.16 µM, first compound 3.16 µM): 14.7%
viability, T/C (second compound 3.16 µM, first compound 10 µM): 8.75%
viability, T/C [27]: 20.1%
viability, T/C [28]: 30.2%
viability, T/C [29]: 24.1%
viability, T/C [30]: 33.2%
viability, T/C (second compound 10 µM, first compound 3.16 µM): 20.3%
viability, T/C (second compound 10 µM, first compound 10 µM): 9.59%

O=C(c1ccc(F)c(F)c1Nc1ccc(I)cc1F)N1CC(O)([C@@H]2CCCCN2)C1 + Cc1c(S(C)(=O)=O)c(-c2cc(F)cc(N3CCN(c4ccc(NS(=O)(=O)c5ccc(NC(CCN6CCC(C(=O)OCCCP(=O)(O)O)CC6)CSc6ccccc6)c(S(=O)(=O)C(F)(F)F)c5)cc4)CC3)c2)c(-c2ccc(Cl)cc2)n1C(C)C
IC50 (second compound 0.1 µM): 21.6 nM
IC50 (second compound 0.316 µM): < 3.16 nM
IC50 (second compound 1 µM): < 3.16 nM
IC50 (second compound 3.16 µM): < 3.16 nM
IC50 (second compound 10 µM): < 3.16 nM
viability, T/C [1]: 46.3%
viability, T/C [2]: 71.5%
viability, T/C [3]: 33.4%
viability, T/C [4]: 45.1%
viability, T/C [5]: 30.7%
viability, T/C [6]: 4.92%
viability, T/C [7]: 41.9%
viability, T/C [8]: 42%
viability, T/C [9]: 44.8%
viability, T/C [10]: 43.7%
viability, T/C [11]: 22%
viability, T/C [12]: 6.11%
viability, T/C [13]: 39.2%
viability, T/C [14]: 44.3%
viability, T/C [15]: 42.1%
viability, T/C [16]: 36.9%
viability, T/C [17]: 24.6%
viability, T/C [18]: 4.55%
viability, T/C [19]: 38.9%
viability, T/C [20]: 25%
viability, T/C [21]: 26.6%
viability, T/C [22]: 29.5%
viability, T/C [23]: 15.3%
viability, T/C [24]: 3.65%
viability, T/C [25]: 34.5%
viability, T/C [26]: 42%
viability, T/C [27]: 32.1%
viability, T/C [28]: 29.1%
viability, T/C [29]: 11.1%
viability, T/C [30]: 2.13%
